Columns and labels:
PI3K p110β [1] = biological target: T1, PI3K p110β (Homo sapiens, UniProt P42338); assay: SelectScreen in vitro kinase inhibitor assay, p110β; assay type: biochemical
T1 construct: purchased Invitrogen Ltd. (SelectScreen service)

PI3K p110γ [2] = biological target: T2, PI3K p110γ (Homo sapiens, UniProt P48736); assay: SelectScreen in vitro kinase inhibitor assay, p110γ; assay type: biochemical; settings: ATP at Km
PI3K p110δ [3] = biological target: T3, PI3K p110δ (Homo sapiens, UniProt O00329); assay: SelectScreen in vitro kinase inhibitor assay, p110δ; assay type: biochemical
T3 construct: endogenous in cells; host or cells: basophils in isolated PBMC or whole blood
T3 sequence (O00329 whole entry): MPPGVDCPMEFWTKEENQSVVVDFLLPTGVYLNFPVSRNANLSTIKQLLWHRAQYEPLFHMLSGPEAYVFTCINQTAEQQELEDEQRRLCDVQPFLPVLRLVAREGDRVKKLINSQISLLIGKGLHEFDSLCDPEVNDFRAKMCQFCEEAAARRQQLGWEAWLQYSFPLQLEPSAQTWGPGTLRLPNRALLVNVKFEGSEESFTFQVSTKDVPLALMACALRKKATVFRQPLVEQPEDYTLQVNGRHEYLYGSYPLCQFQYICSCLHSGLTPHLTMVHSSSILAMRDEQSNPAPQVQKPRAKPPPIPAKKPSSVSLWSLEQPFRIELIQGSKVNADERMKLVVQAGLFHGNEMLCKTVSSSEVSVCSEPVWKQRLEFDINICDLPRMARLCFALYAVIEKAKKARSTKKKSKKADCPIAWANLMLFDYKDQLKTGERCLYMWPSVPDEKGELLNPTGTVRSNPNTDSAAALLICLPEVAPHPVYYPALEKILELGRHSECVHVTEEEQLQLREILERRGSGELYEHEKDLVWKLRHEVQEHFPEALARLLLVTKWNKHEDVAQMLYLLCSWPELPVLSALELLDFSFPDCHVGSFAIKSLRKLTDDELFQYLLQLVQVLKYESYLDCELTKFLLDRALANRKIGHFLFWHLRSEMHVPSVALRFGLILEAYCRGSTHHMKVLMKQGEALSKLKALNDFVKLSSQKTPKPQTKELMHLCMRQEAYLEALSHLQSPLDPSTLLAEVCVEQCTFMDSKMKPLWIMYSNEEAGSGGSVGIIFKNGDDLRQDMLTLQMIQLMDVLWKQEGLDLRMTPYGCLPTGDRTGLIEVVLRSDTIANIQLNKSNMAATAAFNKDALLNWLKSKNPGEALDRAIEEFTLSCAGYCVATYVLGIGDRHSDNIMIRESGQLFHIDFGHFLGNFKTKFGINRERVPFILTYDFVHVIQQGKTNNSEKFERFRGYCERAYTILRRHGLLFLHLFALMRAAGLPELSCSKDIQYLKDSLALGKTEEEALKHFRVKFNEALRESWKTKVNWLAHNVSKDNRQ
T3 sequence (P27986 whole entry partner): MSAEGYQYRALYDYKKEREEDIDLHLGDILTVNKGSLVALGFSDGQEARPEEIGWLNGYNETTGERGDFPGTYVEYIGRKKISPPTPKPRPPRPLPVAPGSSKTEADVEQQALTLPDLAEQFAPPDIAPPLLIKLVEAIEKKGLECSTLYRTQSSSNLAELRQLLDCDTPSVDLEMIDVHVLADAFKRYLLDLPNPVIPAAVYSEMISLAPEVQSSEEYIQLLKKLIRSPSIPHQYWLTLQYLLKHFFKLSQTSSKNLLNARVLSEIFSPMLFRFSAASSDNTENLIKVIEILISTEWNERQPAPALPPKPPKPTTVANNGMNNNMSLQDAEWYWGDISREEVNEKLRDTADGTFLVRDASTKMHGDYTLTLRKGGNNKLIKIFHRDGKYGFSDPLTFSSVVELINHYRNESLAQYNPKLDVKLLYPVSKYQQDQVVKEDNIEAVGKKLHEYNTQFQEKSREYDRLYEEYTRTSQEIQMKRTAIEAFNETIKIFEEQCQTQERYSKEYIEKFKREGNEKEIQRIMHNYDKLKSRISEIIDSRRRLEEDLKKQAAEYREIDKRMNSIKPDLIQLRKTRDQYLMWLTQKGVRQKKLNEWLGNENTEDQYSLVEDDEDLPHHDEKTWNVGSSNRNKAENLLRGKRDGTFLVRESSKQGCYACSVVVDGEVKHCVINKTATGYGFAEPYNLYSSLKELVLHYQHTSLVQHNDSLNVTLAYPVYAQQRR

PI3K p110α [4] = biological target: PI3K p110α (Mus musculus, UniProt P42337); assay: Cellular p110α signaling: PDGF-stimulated MEFs, pAkt Western blot; assay type: cell-based, murine; settings: cellular assay, MEFs, PDGF; read-out: EC50 p110α
Experimental: (§4) To analyze PI3K p110α and p110β signaling, murine embryo fibroblast (MEFs) were removed from FBS and starved for 2 hours followed by stimulation with 10 ng/mL of PDGF (Cell Signaling Technologies, Danvers, Mass.) or 10 μM of LPA (Echelon, Salt Lake City, Utah) for 10 minutes at 37° C., respectively. After washing once in cold phosphate-buffered saline (PBS), the cell pellet was resuspended in 1× cell lysis buffer (Cell Signaling Technologies) supplemented with mini protease inhibitor mix (Roche, Indianapolis, Ind.), phosphate inhibitor cocktail set I and II (Calbiochem, San Diego, Calif.) for 15 minutes on ice. Whole-cell lysates were obtained by centrifugation at 16,000 g for 10 minutes at 4° C., and the soluble protein was analyzed by Western blotting for Akt and pAkt levels. To analyze PI3K p110δ and p110γ signaling, basophil activation was measured in isolated PBMC or whole blood using the Flow2 CAST kit according to the manufacture's standardized methods (Buhlman Laboratories AG, Switzerland). Briefly, p110δ was activated with anti-FCεRI and p110γ was activated with fMLP (2 μM) in the absence or presence of compounds. To monitor the basophil cell population and cellular activation, anti-CD63-FITC and anti-CCR3-PE antibodies were added to each sample. Cells were fixed and analyzed on a FC500 MPL flow cytometer (Beckman Coulter, Brea, Calif.).

PI3K p110β [5] = biological target: T4, PI3K p110β (Mus musculus, UniProt Q8BTI9); assay: Cellular p110β signaling: LPA-stimulated MEFs, pAkt Western blot; assay type: cell-based, murine; settings: cellular assay, read-out: EC50 p110β
T4 construct: endogenous in cells; host or cells: murine embryo fibroblasts (MEFs)
T4 sequence (Q8BTI9 whole entry): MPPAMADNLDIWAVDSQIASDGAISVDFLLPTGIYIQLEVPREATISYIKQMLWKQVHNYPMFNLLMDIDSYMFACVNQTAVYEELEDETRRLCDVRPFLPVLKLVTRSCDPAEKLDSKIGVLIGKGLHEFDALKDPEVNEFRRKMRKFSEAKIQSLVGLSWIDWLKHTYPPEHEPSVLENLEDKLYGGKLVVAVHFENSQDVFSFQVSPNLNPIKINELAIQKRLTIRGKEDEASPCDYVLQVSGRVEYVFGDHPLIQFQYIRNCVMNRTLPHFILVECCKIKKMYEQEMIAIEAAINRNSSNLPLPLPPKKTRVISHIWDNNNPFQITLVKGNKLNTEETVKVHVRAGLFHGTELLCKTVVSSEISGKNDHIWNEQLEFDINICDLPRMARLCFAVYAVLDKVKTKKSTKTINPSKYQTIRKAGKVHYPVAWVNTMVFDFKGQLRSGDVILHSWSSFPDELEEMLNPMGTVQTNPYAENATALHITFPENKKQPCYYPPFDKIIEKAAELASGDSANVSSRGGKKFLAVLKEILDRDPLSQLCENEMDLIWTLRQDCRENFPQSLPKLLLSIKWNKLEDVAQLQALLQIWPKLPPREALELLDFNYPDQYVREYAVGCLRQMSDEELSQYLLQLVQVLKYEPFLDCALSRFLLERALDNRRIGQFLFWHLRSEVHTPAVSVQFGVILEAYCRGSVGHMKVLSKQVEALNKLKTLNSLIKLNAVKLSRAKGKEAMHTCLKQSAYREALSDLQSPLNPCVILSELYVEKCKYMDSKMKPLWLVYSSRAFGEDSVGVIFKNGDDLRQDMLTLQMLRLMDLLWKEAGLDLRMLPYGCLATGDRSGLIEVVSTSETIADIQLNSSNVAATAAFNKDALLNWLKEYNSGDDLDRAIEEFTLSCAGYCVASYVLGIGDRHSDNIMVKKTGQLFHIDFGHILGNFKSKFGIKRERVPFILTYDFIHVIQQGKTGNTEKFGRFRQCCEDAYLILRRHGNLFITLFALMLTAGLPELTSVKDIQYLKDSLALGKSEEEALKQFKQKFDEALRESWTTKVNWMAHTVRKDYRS
T4 sequence (P26450 whole entry partner): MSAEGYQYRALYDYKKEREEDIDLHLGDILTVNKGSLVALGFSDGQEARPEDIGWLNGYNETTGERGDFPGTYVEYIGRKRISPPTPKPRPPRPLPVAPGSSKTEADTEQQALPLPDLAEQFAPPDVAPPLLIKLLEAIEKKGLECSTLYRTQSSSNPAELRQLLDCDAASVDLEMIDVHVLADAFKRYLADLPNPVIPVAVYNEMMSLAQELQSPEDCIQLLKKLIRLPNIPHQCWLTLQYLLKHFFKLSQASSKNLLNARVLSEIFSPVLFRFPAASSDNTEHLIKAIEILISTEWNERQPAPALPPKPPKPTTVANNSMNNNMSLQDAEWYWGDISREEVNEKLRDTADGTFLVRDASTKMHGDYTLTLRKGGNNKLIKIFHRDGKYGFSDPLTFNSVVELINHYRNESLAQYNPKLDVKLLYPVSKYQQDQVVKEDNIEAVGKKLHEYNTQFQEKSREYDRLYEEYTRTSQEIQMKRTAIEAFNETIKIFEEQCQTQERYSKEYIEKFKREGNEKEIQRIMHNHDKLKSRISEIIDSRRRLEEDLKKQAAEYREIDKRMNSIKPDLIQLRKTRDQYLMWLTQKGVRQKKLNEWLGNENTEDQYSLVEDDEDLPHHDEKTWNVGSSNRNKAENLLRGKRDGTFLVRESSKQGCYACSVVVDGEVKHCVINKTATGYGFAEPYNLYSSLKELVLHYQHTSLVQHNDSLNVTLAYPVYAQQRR
Experimental: as §4

PI3K p110δ [6] = biological target: T3, PI3K p110δ; assay: Cellular p110δ signaling: basophil activation with anti-FCεRI (Flow2 CAST); assay type: cell-based; settings: cellular assay
Experimental: as §4

PI3Kβ (p110 β) = biological target: T5, PI3Kβ (p110 β) (Homo sapiens, UniProt P42338); assay: TR-FRET enzymatic assay, PI3Kβ; assay type: biochemical
T5 construct: made in house
Experimental: (§5) Enzymatic activity of the class I PI3K isoforms was measured using a time resolved fluorescence resonance energy transfer assay (TR-FRET) that monitors formation of the product 3,4,5-inositol triphosphate molecule (PIP3), as it competes with fluorescently labeled PIP3 for binding to the GRP-1 pleckstrin homology domain protein. An increase in phosphatidylinositide 3-phosphate product results in a decrease in TR-FRET signal as the labeled fluorophore is displaced from the GRP-1 protein binding site. Class I PI3K isoforms were expressed and purified as heterodimeric recombinant proteins. All assay reagents and buffers for the TR-FRET assay were purchased from Millipore. […] After an assay reaction time of 30 minutes at 25° C., reactions were terminated with a final concentration of 10 mM EDTA, 10 nM labeled-PIP3, and 35 nM Europium labeled GRP-1 detector protein before reading TR-FRET on an Envision plate reader. IC50 values were calculated from the fit of the dose-response curves to a four-parameter equation. All IC50 values represent geometric mean values of a minimum of four determinations. These assays generally produced results within 3-fold of the reported mean.

PI3Kδ (p110δ) = biological target: T6, PI3Kδ (p110δ) (Homo sapiens, UniProt O00329); assay: TR-FRET enzymatic assay, PI3Kδ; assay type: biochemical
T6 construct: made in house
T6 sequence (O00329 whole entry): as the sequence (O00329 whole entry) above
T6 sequence (P27986 whole entry partner): as the sequence (P27986 whole entry partner) above
Experimental: as §5

PI3Kγ (p110γ) = biological target: T7, PI3Kγ (p110γ) (Homo sapiens, UniProt P48736); assay: TR-FRET enzymatic assay, PI3Kγ; assay type: biochemical; settings: 2×Km ATP, geometric mean of at least four determinations
T7 construct: made in house
T7 sequence (P48736 whole entry, species assumed): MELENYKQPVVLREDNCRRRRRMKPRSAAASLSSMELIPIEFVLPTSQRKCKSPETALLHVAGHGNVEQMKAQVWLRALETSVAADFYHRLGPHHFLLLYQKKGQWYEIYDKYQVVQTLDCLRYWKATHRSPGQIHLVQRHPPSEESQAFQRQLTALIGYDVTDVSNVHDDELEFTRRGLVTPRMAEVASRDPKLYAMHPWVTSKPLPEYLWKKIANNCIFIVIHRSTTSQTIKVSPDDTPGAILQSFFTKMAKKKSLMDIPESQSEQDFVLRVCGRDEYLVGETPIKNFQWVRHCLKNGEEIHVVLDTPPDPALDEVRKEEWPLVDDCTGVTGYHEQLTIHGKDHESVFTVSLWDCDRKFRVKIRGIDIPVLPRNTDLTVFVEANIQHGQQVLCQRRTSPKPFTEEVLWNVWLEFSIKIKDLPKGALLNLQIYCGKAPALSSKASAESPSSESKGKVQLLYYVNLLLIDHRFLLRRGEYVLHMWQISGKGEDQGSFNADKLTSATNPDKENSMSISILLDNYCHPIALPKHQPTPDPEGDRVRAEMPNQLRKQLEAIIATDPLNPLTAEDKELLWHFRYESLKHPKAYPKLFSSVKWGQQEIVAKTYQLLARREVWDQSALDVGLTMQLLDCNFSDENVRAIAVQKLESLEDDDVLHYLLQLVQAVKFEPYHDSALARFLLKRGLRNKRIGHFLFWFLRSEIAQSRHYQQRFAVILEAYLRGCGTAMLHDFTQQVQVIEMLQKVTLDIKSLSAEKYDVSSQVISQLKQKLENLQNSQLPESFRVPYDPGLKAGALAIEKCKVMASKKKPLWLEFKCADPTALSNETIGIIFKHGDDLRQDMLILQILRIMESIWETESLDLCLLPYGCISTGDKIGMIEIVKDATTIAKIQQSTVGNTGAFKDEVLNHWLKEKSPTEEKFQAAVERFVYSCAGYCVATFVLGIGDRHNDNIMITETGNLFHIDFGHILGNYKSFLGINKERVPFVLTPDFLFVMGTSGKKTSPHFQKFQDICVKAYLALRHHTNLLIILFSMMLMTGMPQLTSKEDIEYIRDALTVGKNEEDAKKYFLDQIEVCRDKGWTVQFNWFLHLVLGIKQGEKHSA
Experimental: as §5

Solid tumor = assay: Cellular viability, solid tumor; assay type: cell-based; settings: N = 14
Experimental: (§1) For primary T-ALL samples, cell viability was determined using the BD Cell Viability kit (BD Biosciences) and fluorescent counting beads as previously described in Armstrong, F. et al., NOTCH is a key regulator of human T-cell acute leukemia initiating cell activity, Blood 113, 1730-1740 (2009). Cells were plated with MS5-DL1 stroma cells. After 72 hours following treatment, cells were harvested and stained with an APC-conjugated anti-human CD45 according to the manufacturer's instructions. For solid tumor cell lines, cellular viability was determined using the AlamarBlue kit (Invitrogen). About 10,000 cells in 100 μL of media containing 10% FBS were aliquoted into individual wells of a 96-well plate and treated with vehicle (DMSO) or compound in triplicate for 24 hours. Ten μL of AlamarBlue reagent was added to each well and incubated for 4 hours at 37° C. with 5% CO2. Fluorescence was measured with an excitation wavelength at 530 to 560 nm and emission wavelength at 590 nm using Spectramax M5 plate reader (Molecular Devices, Sunnyvale, Calif.).
(§2) Cellular viability and pAkt activity were used to determine effects of Compounds A, C, and D in solid tumor, B-cell malignancies, and T-cell malignancies.

pAkt in solid tumor = assay: pAkt activity, solid tumor; assay type: cell-based; settings: N = 14
Source text: as §2

B Cell Malignancies = assay: Cellular viability, B cell malignancies; assay type: cell-based; settings: N = 7
Source text: as §2

[7] = tested on: pAkt in B Cell Malignancies; assay: pAkt activity, B cell malignancies; assay type: cell-based; settings: N = 7
Source text: as §2

T Cell Malignancies = assay: Cellular viability, T cell malignancies; assay type: cell-based; settings: N = 7
Source text: as §2

[8] = tested on: pAkt in T Cell Malignancies; assay: pAkt activity, T cell malignancies; assay type: cell-based; settings: N = 7
Source text: as §2

PI3K p110α [9] = biological target: PI3K p110α (Homo sapiens, UniProt P42336); assay: biochemical
PI3Kα (p110α) = PI3Kα (p110α) (Homo sapiens, UniProt P42336); assay: biochemical
Experimental: Enzymatic activity of the class I PI3K isoforms was measured using a time resolved fluorescence resonance energy transfer assay (TR-FRET) that monitors formation of the product 3,4,5-inositol triphosphate molecule (PIP3), as it competes with fluorescently labeled PIP3 for binding to the GRP-1 pleckstrin homology domain protein. An increase in phosphatidylinositide 3-phosphate product results in a decrease in TR-FRET signal as the labeled fluorophore is displaced from the GRP-1 protein binding site. Class I PI3K isoforms were expressed and purified as heterodimeric recombinant proteins. All assay reagents and buffers for the TR-FRET assay were purchased from Millipore. […] IC50 values were calculated from the fit of the dose-response curves to a four-parameter equation. All IC50 values represent geometric mean values of a minimum of four determinations. These assays generally produced results within 3-fold of the reported mean.

PI3K p110γ [10] = biological target: T2, PI3K p110γ; assay: Cellular p110γ signaling: basophil activation with fMLP (Flow2 CAST); assay type: cell-based; parameters: endogenous in cells; host or cells: basophils in isolated PBMC or whole blood; settings: cellular assay
Experimental: as §4

PTEN null T-ALL = assay: Diseased Lck/PTEN^fl/fl mice with PTEN null T-ALL; assay type: in vivo
Experimental: Mouse whole blood was incubated with appropriate antibodies and processed using the BD Bioscience BD FACS Lysing Solution according to the manufacturer's instructions. Immediately after lysis, cells were permeabilized with 0.025% Tween-20 in lysing solution for 15 minutes, then incubated with Ki67 antibodies. Single cell suspensions of thymocytes were isolated and stained with the appropriate antibodies as described in Swat, W. et al., Essential role of PI3 Kdelta and PI3 Kgamma in thymocyte survival, Blood 107, 2415-2422 (2006).
All mice were kept in specific pathogen-free facility at Columbia University Medical Center. All procedures were performed in accordance with the guidelines of the Institutional Animal Care and Use Committee. Lck-cre, NOD.Cg-Prkdc^scid Il2rg^tmlWjl/Sz and Gt(ROSA)26Sor^tml(Luc)Kael/J mice were obtained from the Jackson Laboratory. Mice deficient for PTEN in the T-cell lineage were generated by crossing Lck-cre with floxed PTEN. P110γ^−/− and p110δ^−/− mice as described in Swat, W. et al., Essential role of PI3 Kdelta and PI3 Kgamma in thymocyte survival, Blood 107, 2415-2422 (2006). The animals were intercrossed with Lck-cre/PTEN^fl/fl animals to generate mice homozygous mutant for either p110γ or p110δ and PTEN or homozygous mutant for p110γ, 110δ, and PTEN.
Lck/PTEN^fl/fl mice were crossed with the mice having a luciferase cDNA, preceded by a LoxP-stop-LoxP cassette was introduced into the ubiquitously expressed ROSA26 locus. […] The results are consistent with the reduction in whole blood cells and CD4 single positive population of tumor cells.
Lck/PTEN^fl/fl mice having T-ALL were administered with Compound B at an oral dose of 10 mg/kg every 8 hours or DMSO vehicle for a period of 7 days. […] Compound B extended the median survival to 45 days compared to 7.5 days for the vehicle group (data not shown).
Diseased Lck/PTEN^fl/fl mice (i.e. Lck/PTEN^fl/fl mice diagnosed with T-ALL) were treated with Compounds B for a period of 7 days. Mice were examined for sequential blood counts, peripheral smears, and flow cytometric analyses. […] Forward scatter (FSC) and Ki67 staining were indicators of cell size and proliferation, respectively; and apoptosis was detected by assessing the […] population after PI staining.
PTEN^fl/fl mice were crossed with the mice having a luciferase cDNA, preceded by a LoxP-stop-LoxP cassette was introduced into the ubiquitously expressed ROSA26 locus. Progeny were then crossed with Lck-cre transgenics to delete PTEN in T-cell progenitors and induce expression of luciferase. Imaging on T-ALL tumor bearing mice was performed at Day 0 and 4 after treatment of Compound B or vehicle.

CCRF-CEM cells [11] = assay: Proliferation and apoptosis of CCRF-CEM cells; assay type: cell-based; settings: 1, 2.5, or 5 μM, within 24 hours, persisted 4 days
Experimental: CCRF-CEM cells were obtained from ATCC and grown in RPMI-1640 medium containing 10% FBS and antibiotics.
Cell counts for mice thymii were determined as described in Swat, W. et al., Essential role of PI3 Kdelta and PI3 Kgamma in thymocyte survival, Blood 107, 2415-2422 (2006). Cell proliferation of untransfected or shRNA transfected CCRF-CEM cells was followed by cell counting of samples in triplicate using a hemocytometer.
Cells were stained with APC-conjugated Annexin-V (BD Biosciences) in Annexin Binding Buffer (Miltyeni Biotec) and analyzed by flow cytometry.
CCRF-CEM cells, a PTEN null acute lymphoblastoid leukemia cell line, were treated with Compound B of 1, 2.5, or 5 μM or control of DMSO vehicle for a period of 4 days.

CCRF-CEM cells [12] = assay: Immunoblot of signaling and pro-apoptotic pathways in CCRF-CEM cells; assay type: cell-based
Experimental: Cell lysates (from cell lines or thymocytes) were prepared on ice in M-PER Mammalian Protein Extraction reagent (Pierce) containing a cocktail of protease and phosphatase inhibitors as described in Swat, W. et al., Essential role of PI3 Kdelta and PI3 Kgamma in thymocyte survival, Blood 107, 2415-2422 (2006). Equal amounts of total protein from lysates were separated using SDS-PAGE, transferred to PVDF membrane (Immobilon-P, Millipore). Membranes were incubated overnight incubation with appropriate primary antibodies. Bound antibodies were visualized with HRP-conjugated secondary antibodies and ECL chemistry (SuperPico West, Pierce).
The ability of Compound B treatment to interfere with proapoptotic effectors such as the BH3-only pro-apoptotic protein BAD and to repress the expression of BIM was also examined. CCRF-CEM cells were treated with Compound B ranging from 0, 0.25, 0.5, 1.0, 2.5, 5.0 and 10 μM.

CCRF-CEM xenografts = assay: Subcutaneous CCRF-CEM xenograft, bioluminescence; assay type: in vivo, mice; settings: 10 mg/kg for 4 days, subcutaneous tumors
Experimental: Luminescent CCRF-CEM (CEM-luc) cells were generated by lentiviral infection with FUW-luc and selection with neomycin. Luciferase expression was verified with the Dual-Luciferase Reporter Assay kit (Promega). CEM-luc cells (2.5×10^6) embedded in Matrigel (BD Biosciences) were injected in the flank of NOD.Cg-Prkdc^scid Il2rg^tmlWjl/Sz mice. After 1 week, mice were treated by oral gavage with vehicle (0.5% methyl cellulose, 0.1% Tween-80) or compound every 8 hours daily for 4 days. Mice were anesthetized by isoflurane inhalation […] of D-luciferin ([…], Xenogen). Photonic emission was imaged with the In Vivo Imaging System (IVIS, Xenogen). Tumor bioluminescence was quantified by integrating the photonic flux (photons per second) through a region encircling each tumor using the LIVING IMAGES software package (Xenogen).
(§3) To assess the in vivo relevance of these observations, mice with subcutaneous or intravenous CCRF-CEM cells were treated with either Compound B or DMSO vehicle. In the subcutaneous xenographs, luciferase expressing CCRF-CEM cells were injected into the flanks of immunodeficient mice and allowed to grow for 1 week before administering vehicle control or 10 mg/kg of Compound B for a period of 4 days. In the intravenous xenographs, treatment commenced 3-day post-injection of tumor cells for a period of 7 days.

CCRF-CEM xenograft = assay: Intravenous (systemic) CCRF-CEM xenograft, survival; assay type: in vivo, mice; settings: treatment for 7 days from 3 days post-injection; vehicle control 23 days
Experimental: CCRF-CEM cells (5×10^6) were injected intravenously in fourteen NOD.Cg-Prkdc^scid Il2rg^tmlWjl/Sz mice. After 3 days, mice were segregated into two groups that received compound or vehicle for 7 days. Mice in both groups were then followed until moribund and euthanized.
as §3

primary T-ALL tumors = assay: Viability of primary T-ALL tumors; assay type: cell-based, human; settings: 1.0, 2.5, and 5.0 μM, 72 hours
Experimental: Cryopreserved samples from the Columbia Presbyterian Hospital, the Erasmus MC-Sophia Children's Hospital, and the University of Padua were used. All samples were collected with informed consent and supervised by the institutes' review boards and the Acute Lymphoblastic Leukemia Strategic Scientific Committee.
as §1, with “Calif.). […]” for “Calif.).”

T2 sequence (P48736 whole entry): as the sequence (P48736 whole entry, species assumed) above

## C[C@H](Nc1ncnc2[nH]cnc12)c1nc2ccc(F)cc2c(=O)n1-c1ccccc1 [Compound D]
PI3K p110β [1]
  IC50: 0.153 µM
PI3K p110γ [2]
  IC50: 0.025 µM
PI3K p110δ [3]
  IC50: 0.0009 µM
PI3K p110α [4]
  EC50: > 20 µM
PI3K p110β [5]
  EC50: 1.2 µM
PI3K p110δ [6]
  EC50: 0.0049 µM
PI3Kβ (p110 β)
  IC50: 3.4 µM
PI3Kδ (p110δ)
  IC50: 0.0093 µM
PI3Kγ (p110γ)
  IC50: 1 µM
Solid tumor
  EC50: 4.75 µM
pAkt in solid tumor
  EC50: 0.987 µM
B Cell Malignancies
  EC50: 0.54 µM
[7]
  EC50: 0.35 µM
T Cell Malignancies
  EC50: 7.7 µM
[8]
  EC50: 0.988 µM
PI3K p110α [9]
  IC50: 0.303 µM
PI3Kα (p110α)
  IC50: 7.8 µM
PI3K p110γ [10]
  EC50: 2.35 µM

## Cc1ccccc1-n1c(C(C)Nc2nc(N)nc3[nH]cnc23)nc2cccc(C)c2c1=O (centres unmarked) [Compound B, 2-(1-(2-amino-9H-purin-6-ylamino)ethyl)-5-methyl-3-o-tolylquinazolin-4(3H)-one]
PTEN null T-ALL; Compound B for 7 days, versus vehicle control, P<0.01
  weights of thymi, liver, spleen, and kidneys: significantly less
PTEN null T-ALL; Compound B treatment for 7 days, by Day 4
  WBC: significant reduction
PTEN null T-ALL; Compound B treatment, Day 4, versus vehicle
  bioluminescent imaging signals: dramatically lower
PTEN null T-ALL; Compound B treatment, Day 4 through Day 7
  apoptosis (sub-G0 population after propidium iodide staining): increase in apoptosis
PTEN null T-ALL; oral 10 mg/kg every 8 hours for 7 days, vehicle group 7.5 days
  median survival: 45 days
CCRF-CEM cells [11]
  apoptosis: promoted apoptosis
  proliferation: prevented proliferation
CCRF-CEM cells [12]; 0.25 to 10 μM
  phosphorylation of GSK3β and mTOR: reduction
CCRF-CEM cells [12]; Compound B treatment
  expression of BIM (including the L and S isoforms): enhanced expression
  phosphorylation of BAD: reduction
CCRF-CEM cells [12]; […]
  Akt/PKB (Ser473) phosphorylation: reduction and complete abrogation
CCRF-CEM xenografts
  difference in luminescence, treated versus vehicle treated animals: 5 fold
CCRF-CEM xenograft
  median survival time: 35 days
Primary T-ALL tumors
  viability of tumor cells: reduced

## CC[C@H](Nc1ncnc2[nH]cnc12)c1nc2cccc(F)c2c(=O)n1-c1ccccc1 [Compound C]
PI3K p110α [4]
  EC50: > 20 µM
PI3K p110β [5]
  EC50: 1.9 µM
Solid tumor
  EC50: 11.4 µM
B Cell Malignancies
  EC50: 0.662 µM
[7]
  EC50: 0.367 µM
T Cell Malignancies
  EC50: > 25 µM

— patent US20130143902A1, “COMPOSITIONS AND METHODS OF TREATING A PROLIFERATIVE DISEASE WITH A QUINAZOLINONE DERIVATIVE” (GILEAD CALISTOGA LLC, priority 2011, published 2013)
